From paper PMC7071032, “In Vitro Inhibition of Hsp90 Protein by Benzothiazoloquinazolinequinones Is Enhanced in The Presence of Ascorbate. A Preliminary In Vivo Antiproliferative Study” (Molecules, 2020) come the findings set out here.

By IC50 is commonly meant the midpoint of a concentration-inhibition curve. What is called melting point is the temperature, or range, at which the solid turns liquid.

The subject of series [1] is DU-145 (prostate) cells. Nature of the series: MTT reduction assay, DU-145 cells. To be noted: Homo sapiens, DU-145, 48 h, read-out: IC50 ± SEM DU-145. Type of series: cell-based. How it is done:
(§1) As positive control, two well-known anticancer drugs, namely TAM and 5-FU, were also tested on these cell lines. […] Regarding 5-FU, it is a broad-spectrum chemotherapeutic drug used to treat a variety of malignancies. Particularly, it has a long history of use against bladder tumors.
(§2) Cell culture conditions were the same as reported elsewhere. Briefly, cell lines were kept in DMEM containing 10% fetal calf serum. In addition, 100 U/mL of penicillin and 100 µg/mL streptomycin from Gibco (Grand Island, NY, USA) were further added. Cell cultures were kept at 37 °C under an atmosphere of 95% air/5% CO2 and 100% humidity. Sodium L-ascorbate, menadione (vitamin K3), TAM, and 5-FU were purchased from Sigma (St. Louis, MO, USA).
(§3) The cytotoxicity of the quinones was assessed by following the reduction of MTT (3-(4,5-dimethylthiazol-2-yl)-2,5-diphenyltetrazolium bromide) to formazan blue and the capability of cancer cells to proliferate, namely a clonogenic assay.
(§4) Cells were seeded into 96-well plates at a density of 10,000 cells/well for 24 h and then incubated for 48 h with or without the quinone derivatives. […] The IC50 values were determined using the GraphPad Prism software (San Diego, CA, USA). Further incubation procedures and optical density reading of colored solutions were performed according to Benites et al..
A general note: Tetrazolium assays rely on reduction of a dye to a coloured formazan, in cell work by metabolically active cells.

Series [2] has as its system panel of cancer cells (T24, DU-145, MCF-7). Nature of the series: MTT reduction assay, panel of cancer cells (means, ranges, selectivity index). To be noted: IC50 values of fibroblasts (AG 1523)/IC50 values of tumor cells (T24, DU-145, MCF-7). Type of series: cell-based, human. How it is done: as §1
Such a selective index was calculated as the ratio between IC50 values of healthy cells/IC50 values in cancer cells.
as §4

The test system of series [3] is T24 (bladder) cells. Nature of the series: MTT reduction assay, T24 cells. The class given is cell-based. To be noted: Homo sapiens, T-24, 48 h incubation, read-out: IC50 ± SEM T24. How it is done: as §1, §2, §3, §4
Series [4] relates to MCF-7 (breast) cells. Nature of the series: MTT reduction assay, MCF-7 cells. Type of series: cell-based. As to conditions: Homo sapiens, MCF7, 48 h incubation, read-out: IC50 ± SEM MCF-7. How it is done:
as §1, §2, §3, §4

Series [5] has as its system non-tumor fibroblasts AG 1523. Nature of the series: MTT reduction assay, non-tumor fibroblasts. As to conditions: Homo sapiens, AG1523, 48 h incubation, read-out: IC50 ± SEM AG 1523. The class given is cell-based. The procedure: as §1, §2, §3, §4
In series [6] the test system is poly(ADPribose)polymerase (PARP). Nature of the series: Immunoblot of PARP protein integrity in T24 cells. Type of series: cell-based, human. To be noted: 5 µM, 4 h, regardless of the presence of ascorbate (1 mM). How it is done:
Figure 1 Effects of selected quinones of Hsp90 (A) and poly(ADPribose)polymerase (PARP) (B) protein integrity in T24 cells. […] Ctl represents control untreated cells. * p < 0.05 as compared to control conditions. […] This was the case regardless of the presence of ascorbate (1 mM). The obtained results make a potential role of apoptosis unlikely to be the underlying mechanism of cell impairment induced by quinones, including menadione. Indeed, PARP is a substrate of caspase-3, therefore, when an apoptosis process is triggered, it is expected that PARP protein will be cleaved yielding a second protein band also recognized by the anti-PARP antibody. Cancer cells were incubated for 4 h in the absence and in the presence of compounds. Afterward, cells were washed twice with ice-cold PBS and then resuspended in RIPA lysis buffer supplemented with 1% protease inhibitor cocktail (Sigma–Aldrich, St. Louis, MO, USA) and 3% phosphatase inhibitor cocktail (Calbiochem, Darmstadt, Germany). Treatment of samples and electrophoresis conditions were conducted as previously reported. Mouse monoclonal primary antibodies against hsp90α/β C-terminus (F8), and against β-actin (clone AC-15), were purchased from Santa Cruz Biotechnology (Santa Cruz, CA, USA) and from Abcam (Cambridge, UK), respectively. Rabbit polyclonal antibodies against PARP were purchased from BD Biosciences (San Diego, CA, USA). […]
For orientation: Immunoblotting shows a protein as a band on a membrane.

Series [7] has as its system Hsp90. Nature of the series: Immunoblot of Hsp90 protein integrity in T24 cells. Type of series: cell-based, human. To be noted: 5 µM quinone plus 1 mM ascorbate, 4 h. How it is done:
Nevertheless, when incubation was done in the presence of 1 mM ascorbate (vitamin C) plus quinones (including menadione), a new peptide fragment of about 70 kD was detected by the antibody against Hsp90.
Figure 1 Effects of selected quinones of Hsp90 (A) and poly(ADPribose)polymerase (PARP) (B) protein integrity in T24 cells. Cancer cells were incubated for 4 h with 5 µM menadione (K3), 15, 16, 19, or 20 either in the absence or in the presence of 1 mM ascorbate (Asc). Ctl represents control untreated cells. * p < 0.05 as compared to control conditions.
Cancer cells were incubated for 4 h in the absence and in the presence of compounds. Afterward, cells were washed twice with ice-cold PBS and then resuspended in RIPA lysis buffer supplemented with 1% protease inhibitor cocktail (Sigma–Aldrich, St. Louis, MO, USA) and 3% phosphatase inhibitor cocktail (Calbiochem, Darmstadt, Germany). Treatment of samples and electrophoresis conditions were conducted as previously reported. Mouse monoclonal primary antibodies against hsp90α/β C-terminus (F8), and against β-actin (clone AC-15), were purchased from Santa Cruz Biotechnology (Santa Cruz, CA, USA) and from Abcam (Cambridge, UK), respectively. Rabbit polyclonal antibodies against PARP were purchased from BD Biosciences (San Diego, CA, USA). […]

`CCCCCC1(O)C2=C(N=C3Sc4cc(C)ccc4N31)C(=O)c1ccccc1C2=O` (centres unmarked) [Compound 17] returned a melting point of 129 to 129.5 °C. For the same molecule, the IC50 in series [1] was 8.46 ± 0.31 µM. Also, in series [2], the “MSI: mean selective index” value is recorded as 1.09. Also, the IC50 in series [3] was found to be 6.86 ± 0.33 µM. Besides, the concentration for half-maximal inhibition (IC50) in series [4] came out at 5.26 ± 0.22 µM. The IC50 in series [5] stood at 7.5 ± 0.69 µM.
For `CC1=CC(=O)c2ccccc2C1=O` [menadione, reference compound], in series [6], the PARP cleavage entry is recorded as “neither the quinone derivatives nor menadione induced a detectable PARP cleavage”. For the same molecule, the Hsp90 protein cleavage result in series [7] is on record as “strong Hsp90 cleavage”.
